Biological target: T1, PAR-1 receptor (Cricetulus griseus, UniProt A0A8C2QJ57)
T1 construct: Chinese hamster ovarian (CHO) cells constituently express PAR-1 receptor; endogenous in cells; host or cells: CHO cells
T1 sequence (A0A8C2QJ57 22-428): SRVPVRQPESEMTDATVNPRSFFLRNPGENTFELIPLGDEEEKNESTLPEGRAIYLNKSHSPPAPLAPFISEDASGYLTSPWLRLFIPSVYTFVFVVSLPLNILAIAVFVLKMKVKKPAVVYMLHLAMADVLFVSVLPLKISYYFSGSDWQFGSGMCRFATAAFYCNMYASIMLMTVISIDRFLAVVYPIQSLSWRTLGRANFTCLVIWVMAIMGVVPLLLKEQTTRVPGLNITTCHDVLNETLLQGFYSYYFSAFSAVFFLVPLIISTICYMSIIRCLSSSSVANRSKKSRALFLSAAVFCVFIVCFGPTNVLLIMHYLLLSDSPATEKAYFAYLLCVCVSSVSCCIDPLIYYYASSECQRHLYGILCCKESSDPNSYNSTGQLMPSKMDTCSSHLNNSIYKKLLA
Assay: Calcium release (FLIPR) antagonism of SFLLR-activated PAR-1 in CHO cells
Format: cell-based, Chinese hamster
Details: SFLLR agonist, Schild method from EC50 shifts at three concentrations, read-out: pA2 (converted)
Method: In a variety of cell types, activation of PAR-1 receptors by the SFLLR peptide (a selective PAR-1 agonist) triggers an intracellular signal cascade leading to the release of calcium by the endoplasmic reticulum. Chinese hamster ovarian (CHO) cells constituently express PAR-1 receptor. In this cell line, the release of calcium consecutive to receptor activation by SFLLR is measured by a fluorometry technique (fluorometric imaging plate reader, or FLIPR) using a selective probe for calcium (Fluo-3AM). The emission of fluorescence is pharmacologically proportional to the efficiency of the PAR-1 agonist and to its concentration.
Culture medium: Ham's F-12 (Ham, R. G., Proc. Nat. Acad. Sci. 1965, 53: 288) supplemented with 10% fetal calf serum and […].
Fluorescent probe: Fluo-3AM (4 μM; Teflabs, Austin, Tex., USA)
Agonist: SFLLR-NH2 (Serine, phenylalanine, leucine, leucine, arginine).
Methods: CHO cells are inoculated in 96-well plates (60,000 cells per well) in the presence of 200 μl of culture medium for 24 hours. The cells are incubated with the calcium fluorescent probe for 1 hour at 37° C. The cells are then washed 10 minutes before the signal is measured. PAR-1 antagonist is then injected (0.01 μM to 10 μM). The plates are placed in the FLIPR (Molecular Devices, UK) to measure calcium fluorescence at two wavelengths (488 nm and 540 nm: Sullivan et al., Calcium Signaling Protocols 1999, 125-136). Measurements are taken for 5 min before the antagonist is added and for 10 min following its administration. Maximum fluorescence minus baseline fluorescence is measured in 4 different wells. The test is carried out in duplicate. Under these conditions, the derivatives of the present invention were identified as PAR-1 receptor antagonists (antagonism >60% of the calcium signal at 10 μM). The dose-response curves (0.01 μM to 32 μM) obtained with the SFLLR agonist allowed determination of the effective concentration inducing 50% of the maximum effect (EC50). The strengths (pA2) of some of the PAR-1 antagonists described in the present invention were calculated using the method of Arunlakshana and Schild (Brit. J. Pharmacol., 1959, 14: 48-58) from the EC50 shifts observed at three concentrations.

Compared with `O=C(/C=C/C=C/c1ccccc1Cl)N1CCN(C2CCCC2)CC1` [Example 9, 5-(2-Chloro-phenyl)-1-(4-cyclopentyl-piperazin-1-yl)-penta-2,4-dien-1-one], `O=C(/C=C/C=C/c1ccccc1[N+](=O)[O-])N1CCN(C2CCCC2)CC1` [Example 18, 1-(4-Cyclopentyl-piperazin-1-yl)-5-(2-nitro-phenyl)-penta-2,4-dien-1-one] is 3.3-fold lower in Kb: 229 nM for the first, 69.2 nM for the second.

`O=C(/C=C/C=C/c1ccccc1[N+](=O)[O-])N1CCN(c2ccccc2)CC1` [Example 16, 5-(2-Nitro-phenyl)-1-(4-phenyl-piperazin-1-yl)-penta-2,4-dien-1-one] and `O=C(C=CC=Cc1ccccc1[N+](=O)[O-])N1CCN(c2ccccn2)CC1` [Example 21, 5-(2-Nitro-phenyl)-1-(4-pyridin-2-yl-piperazin-1-yl)-penta-2,4-dien-1-one] are within 1.5-fold of each other in Kb: 58.9 nM for the first, 77.6 nM for the second.

`N#Cc1ccccc1/C=C/C=C/C(=O)N1CCN(C2CCCC2)CC1` [Example 2, 2-[5-(4-Cyclopentyl-piperazin-1-yl)-5-oxo-penta-1,3-dienyl]-benzonitrile] and `N#Cc1ccccc1/C=C/C=C/C(=O)N1CCN(c2ccccn2)CC1` [Example 1, 2-[5-Oxo-5-(4-pyridin-2-yl-piperazin-1-yl)-penta-1,3-dienyl]-benzonitrile] are within 1.5-fold of each other in Kb: 234 nM for the first, 316 nM for the second.

Reference: patent US8022064B2, “Phenylpentadienoyl derivatives and their use as PAR 1 antagonists” (Pierre Fabre Medicament, priority 2006, dated 2011)
